{
  "source": "patent US12060352B2",
  "about": "“Substituted pyrrolo[2,3-d]pyrimidines having ectonucleotide pyrophosphatase-phosphodiesterase inhibitory activity” (KOREA INSTITUTE OF SCIENCE AND TECHNOLOGY, priority 2021, dated 2024)",
  "note": "Counter-ions that a name gives are not always drawn.",
  "data": [
    {"biological_target": "T1, human recombinant ENPP1 (Homo sapiens, UniProt P22413)", "T1 construct": "purchased R&D Systems", "T1 sequence (P22413 1-925)": "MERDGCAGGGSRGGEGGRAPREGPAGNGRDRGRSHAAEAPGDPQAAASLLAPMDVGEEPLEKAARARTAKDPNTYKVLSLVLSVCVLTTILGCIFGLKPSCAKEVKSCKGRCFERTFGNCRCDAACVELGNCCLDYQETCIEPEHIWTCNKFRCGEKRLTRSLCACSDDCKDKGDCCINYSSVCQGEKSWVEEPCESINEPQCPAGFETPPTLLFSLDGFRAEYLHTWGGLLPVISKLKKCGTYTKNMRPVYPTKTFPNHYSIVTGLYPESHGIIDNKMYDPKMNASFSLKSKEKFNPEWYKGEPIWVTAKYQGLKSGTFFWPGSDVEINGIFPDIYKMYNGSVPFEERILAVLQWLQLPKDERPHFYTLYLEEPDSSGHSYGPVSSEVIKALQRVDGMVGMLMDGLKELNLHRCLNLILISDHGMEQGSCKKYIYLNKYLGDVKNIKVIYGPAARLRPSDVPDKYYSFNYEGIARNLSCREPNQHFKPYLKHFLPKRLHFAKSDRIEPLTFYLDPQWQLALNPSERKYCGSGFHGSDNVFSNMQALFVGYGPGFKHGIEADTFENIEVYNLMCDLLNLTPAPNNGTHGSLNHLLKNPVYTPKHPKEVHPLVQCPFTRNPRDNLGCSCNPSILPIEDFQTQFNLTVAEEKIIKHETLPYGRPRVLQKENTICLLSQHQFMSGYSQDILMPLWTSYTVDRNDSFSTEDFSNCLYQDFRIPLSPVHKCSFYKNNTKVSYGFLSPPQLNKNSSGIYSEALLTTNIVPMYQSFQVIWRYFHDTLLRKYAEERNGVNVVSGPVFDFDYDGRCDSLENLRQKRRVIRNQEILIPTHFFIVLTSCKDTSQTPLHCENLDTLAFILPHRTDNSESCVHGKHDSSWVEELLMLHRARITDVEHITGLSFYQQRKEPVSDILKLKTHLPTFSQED", "experiment": "ENPP1 enzyme assay with cGAMP substrate (AMP-Glo)", "type": "biochemical", "conditions": "human recombinant ENPP1 3 ng per reaction, cGAMP 5 μM, 37° C., 90 minutes, AMP-Glo luminescence", "description": "ENPP1 hydrolyzes nucleotides or nucleotide derivatives to yield nucleoside-5′-monophosphate and pyrophosphate. In addition, ENPP1 hydrolyzes 2′,3′-cGAMP to yield 5′-adenosine monophosphate (AMP) and 5′-guanosine monophosphate (GMP). AMP obtained through the above reaction was measured using an AMP-Glo® kit (Promega). The AMP-Glo® kit includes two reagents. The first reagent terminates the AMP-producing enzyme reaction, removes ATP, and converts the produced AMP into ADP. The second reagent converts ADP into ATP, the ATP being used to generate luminescence in the luciferase reaction. The amount of luminescence measured as described above is proportional to the amount of AMP produced by ENPP1.\nThe final reaction mixture for an assay system contains 50 mM Tris (pH 8.5) buffer, 250 mM NaCl, 0.5 mM CaCl2, 1 μM ZnCl2, 5% glycerol, and 1% DMSO. […] The reaction was initiated by addition of cGAMP (at a final concentration of 5 μM) and carried out at 37° C. for 90 minutes. At the end of the reaction, 10 μl of AMP-Glo first reagent was added to stop the reaction, and then the reaction mixture was stored at room temperature for 1 hour. After storage, the mixture was added with 20 μl of an AMP detection solution (a mixture of AMP-Glo II reagent and Kinase-Glo at a ratio of 1:100) and stored at room temperature for 1 hour. Luminescence signals were measured using a Victor® plate reader (Perkin Elmer). The maximal activity control (containing an enzyme and a substrate in the presence of 1% DMSO; MAX) and the minimal activity control (containing a substrate and 1% DMSO; MIN) were evaluated simultaneously. In each experiment, serially diluted reference ENPP1 inhibitors were tested together. IC50 values for % residual activity versus compound concentration were determined by fitting inhibition curves using a 3-parameter variable slope in GraphPad Prism® software.", "units": {"IC50": "nM"}, "values": [
      {"molecule": "CC(C)(NS(N)(=O)=O)c1ccc(-c2ncnc3[nH]ccc23)cc1", "note": "[Example 26, N-(2-(4-(7H-pyrrolo[2,3-d]pyrimidin-4-yl)phenyl)propan-2-yl)sulfamide hydrochloride]", "IC50": "< 1000"},
      {"molecule": "Cn1ccc2c(N3CCC(CNS(N)(=O)=O)CC3)ncnc21", "note": "[Example 44, N-((1 (7-methyl-7H-pyrrolo[2,3-d]pyrimidin-4-yl)piperidin-4-yl)methyl)sulfamide]", "IC50": "< 1000"},
      {"molecule": "Cc1c[nH]c2ncnc(N3CCC(CN)CC3)c12", "note": "[Example 63, (1-(5-methyl-7H-pyrrolo[2,3-d]pyrimidin-4-yl)piperidin-4-yl)methenamine hydrochloride]", "IC50": "> 10000"},
      {"molecule": "c1nc(N2CCC3(CCNC3)CC2)c2cc[nH]c2n1", "note": "[Example 66, 8-(7H-pyrrolo[2,3-d]pyrimidin-4-yl)-2,8-diazaspiro[4.5]decane hydrochloride]", "IC50": "> 10000"},
      {"molecule": "CC(C)(C)OC(=O)NS(=O)(=O)NCc1ccc(-c2ccnc3[nH]ccc23)cc1", "note": "[Example 17, tert-butyl (N-(4-(1H-pyrrolo[2,3-b]pyridin-4-yl)benzyl)sulfamoyl)carbamate]", "IC50": "> 10000"},
      {"molecule": "NS(=O)(=O)NCCC1CCN(c2ncnc3[nH]ccc23)CC1", "note": "[Example 54, N-(2-(1-(7H-pyrrolo[2,3-d]pyrimidin-4-yl)piperidin-4-yl)ethyl)sulfamide]", "IC50": "< 1000"},
      {"molecule": "Cc1c[nH]c2ncnc(N3CCC(CNS(N)(=O)=O)CC3)c12", "note": "[Example 78, N-((1-(5-methyl-7H-pyrrolo[2,3-d]pyrimidin-4-yl)piperidin-4-yl)methyl)sulfamide hydrochloride]", "IC50": "< 1000"},
      {"molecule": "NS(=O)(=O)N1CCC2(CCN(c3ncnc4[nH]ccc34)CC2)C1", "note": "[Example 80, 8-(7H-pyrrolo[2,3-d]pyrimidin-4-yl)-2,8-diazaspiro[4.5]decane-2-sulfamide hydrochloride]", "IC50": "< 1000"},
      {"molecule": "NS(=O)(=O)NCC1CCN(c2ncnc3c2ccn3C2CC2)CC1", "note": "[Example 46, N-((1-(7-cyclopropyl-7H-pyrrolo[2,3-d]pyrimidin-4-yl)piperidin-4-yl)methyl)sulfamide]", "IC50": "< 1000"},
      {"molecule": "CC(C)n1ccc2c(N3CCC(CNS(N)(=O)=O)CC3)ncnc21", "note": "[Example 47, N-((1-(7-isopropyl-7H-pyrrolo[2,3-d]pyrimidin-4-yl)piperidin-4-yl)methyl)sulfamide]", "IC50": "> 10000"},
      {"molecule": "NS(=O)(=O)NCC1CCN(c2ncnc3c2ccn3-c2cccnc2)CC1", "note": "[Example 84, N-((1-(7-(pyridin-3-yl)-7H-pyrrolo[2,3-d]pyrimidin-4-yl)piperidin-4-yl)methyl)sulfamide hydrochloride]", "IC50": "1000 to 10000"},
      {"molecule": "NS(=O)(=O)NCC1CCN(c2ncnc3c2ccn3-c2ccccc2)CC1", "note": "[Example 45, N-((1-(7-phenyl-7H-pyrrolo[2,3-d]pyrimidin-4-yl)piperidin-4-yl)methyl)sulfamide]", "IC50": "< 1000"},
      {"molecule": "CC(NS(N)(=O)=O)c1ccc(-c2ncnc3[nH]ccc23)cc1", "note": "(stereo not shown) [Example 27, N-(1-(4-(7H-pyrrolo[2,3-d]pyrimidin-4-yl)phenyl)ethyl)sulfamide hydrochloride]", "IC50": "< 1000"},
      {"molecule": "NCC1CCN(c2ncnc3c2ccn3-c2ccco2)CC1", "note": "[Example 69, (1-(7-(furan-2-yl)-7H-pyrrolo[2,3-d]pyrimidin-4-yl)piperidin-4-yl)methenamine hydrochloride]", "IC50": "1000 to 10000"},
      {"molecule": "NS(=O)(=O)NCC1CCN(c2ncnc3[nH]ccc23)CC1", "note": "[Example 43, N-((1-(7H-pyrrolo[2,3-d]pyrimidin-4-yl)piperidin-4-yl)methyl)sulfamide]", "IC50": "< 1000"},
      {"molecule": "NS(=O)(=O)NCc1ccc(-c2ncnc3[nH]ccc23)cc1F", "note": "[Example 30, N-(2-fluoro-4-(7H-pyrrolo[2,3-d]pyrimidin-4-yl)benzyl)sulfamide hydrochloride]", "IC50": "1000 to 10000"},
      {"molecule": "Cc1cc2c(N3CCC(CNS(N)(=O)=O)CC3)ncnc2[nH]1", "note": "[Example 51, N-((1-(6-methyl-7H-pyrrolo[2,3-d]pyrimidin-4-yl)piperidin-4-yl)methyl)sulfamide]", "IC50": "< 1000"},
      {"molecule": "NS(=O)(=O)NC1CCN(c2ncnc3[nH]ccc23)CC1", "note": "[Example 79, N-(1-(7H-pyrrolo[2,3-d]pyrimidin-4-yl)piperidin-4-yl)sulfamide hydrochloride]", "IC50": "1000 to 10000"},
      {"molecule": "NS(=O)(=O)NCc1ccc(-c2ncnc3[nH]ccc23)cc1", "note": "[Example 25, N-(4-(7H-pyrrolo[2,3-d]pyrimidin-4-yl)benzyl)sulfamide hydrochloride]", "IC50": "1000 to 10000"},
      {"molecule": "NCc1ccc(-c2ncnc3[nH]ccc23)cc1", "note": "[Example 11, (4-(7H-pyrrolo[2,3-d]pyrimidin-4-yl)phenyl)methenamine hydrochloride]", "IC50": "1000 to 10000"},
      {"molecule": "CC(C)(N)c1ccc(-c2ncnc3[nH]ccc23)cc1", "note": "[Example 12, 2-(4-(7H-pyrrolo[2,3-d]pyrimidin-4-yl)phenyl)propan-2-amine hydrochloride]", "IC50": "> 10000"},
      {"molecule": "CC(NS(N)(=O)=O)C1CCN(c2ncnc3[nH]ccc23)CC1", "note": "(stereo not shown) [Example 82, N-(1-(1-(7H-pyrrolo[2,3-d]pyrimidin-4-yl)piperidin-4-yl)ethyl)sulfamide hydrochloride]", "IC50": "< 1000"},
      {"molecule": "NS(=O)(=O)NCC1CCN(c2ncnc3c2ccn3-c2ccco2)CC1", "note": "[Example 83, N-((1-7-(furan-2-yl)-7H-pyrrolo[2,3-d]pyrimidin-4-yl)piperidin-4-yl)methyl)sulfamide hydrochloride]", "IC50": "< 1000"},
      {"molecule": "CSc1nc(N2CCC(CCNS(N)(=O)=O)CC2)c2cc[nH]c2n1", "note": "[Example 53, N-(2-(1-(2-(methylthio)-7H-pyrrolo[2,3-d]pyrimidin-4-yl)piperidin-4-yl)ethyl)sulfamide]", "IC50": "> 10000"},
      {"molecule": "CC(C)(N)c1ccc(-c2ncnc3c2ccn3-c2cccnc2)cc1", "note": "[Example 15, hydrochloride]", "IC50": "> 10000"},
      {"molecule": "NCc1ccc(-c2ccnc3[nH]ccc23)cc1", "note": "[Example 10, (4-(1H-pyrrolo[2,3-b]pyridin-4-yl)phenyl)methenamine hydrochloride]", "IC50": "> 10000"},
      {"molecule": "NCC1CCN(c2ncnc3[nH]ccc23)CC1", "note": "[Example 65, (1-(7H-pyrrolo[2,3-d]pyrimidin-4-yl)piperidin-4-yl)methenamine hydrochloride]", "IC50": "1000 to 10000"},
      {"molecule": "NS(=O)(=O)N1CCc2cc(-c3ncnc4[nH]ccc34)ccc2C1", "note": "[Example 42, 6-(7H-pyrrolo[2,3-d]pyrimidin-4-yl)-3,4-dihydroisoquinoline-2(1H)-sulfonamide hydrochloride]", "IC50": "1000 to 10000"},
      {"molecule": "NS(=O)(=O)NCc1ccc(-c2ccnc3[nH]ccc23)cc1", "note": "[Example 24, N-(4-(1H-pyrrolo[2,3-b]pyridin-4-yl)benzyl)sulfamide hydrochloride]", "IC50": "1000 to 10000"},
      {"molecule": "NS(=O)(=O)NCc1cccc(-c2ncnc3[nH]ccc23)c1", "note": "[Example 34, N-(3-(7H-pyrrolo[2,3-d]pyrimidin-4-yl)benzyl)sulfamide hydrochloride]", "IC50": "1000 to 10000"},
      {"molecule": "O=S(=O)(NCC1CCN(c2ncnc3[nH]ccc23)CC1)c1cccs1", "note": "[Example 88, N-((1-(7H-pyrrolo[2,3-d]pyrimidin-4-yl)piperidin-4-yl)methyl)thiophene-2-sulfonamide]", "IC50": "1000 to 10000"}
    ]}
  ]
}
